Data: PubChem BioAssay AID2060900 (Molecular Pharmacology Branch, DTP, NCI, 2025)

System: 521955-158-R2-J5-PDC complex spheroids, viability
Experiment: Anticancer human tumor 521955-158-R2-J5-PDC patient-derived pancreatic carcinoma cell line growth inhibition [RAS]
Details: for viability, T/C: stronger effect = lower value
How it was run: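 Tumour cells grown as complex spheroids with HUVEC endothelial cells and mesenchymal stem cells, treated with RAS pathway inhibitor combinations. Each agent spans half-log steps from near clinical Cmax, or 10 microM where Cmax is unknown.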

[1] = curve of first compound, second compound 0.0316 µM
[2] = curve of first compound, second compound 0.1 µM
[3] = curve of first compound, second compound 0.316 µM
[4] = curve of first compound, second compound 1 µM
[5] = second compound 0.0316 µM, first compound 0.0316 µM
[6] = second compound 0.0316 µM, first compound 0.1 µM
[7] = second compound 0.0316 µM, first compound 0.316 µM
[8] = second compound 0.0316 µM, first compound 1 µM
[9] = second compound 0.1 µM, first compound 0.0316 µM
[10] = second compound 0.1 µM, first compound 0.1 µM
[11] = second compound 0.1 µM, first compound 0.316 µM
[12] = second compound 0.1 µM, first compound 1 µM
[13] = second compound 0.316 µM, first compound 0.0316 µM
[14] = second compound 0.316 µM, first compound 0.1 µM
[15] = second compound 0.316 µM, first compound 0.316 µM
[16] = second compound 0.316 µM, first compound 1 µM
[17] = second compound 1 µM, first compound 0.0316 µM
[18] = second compound 1 µM, first compound 0.1 µM
[19] = second compound 1 µM, first compound 0.316 µM
[20] = second compound 1 µM, first compound 1 µM
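Also: compound exposure lasted seven days before the viability read.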
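For viability, T/C in this document: spheroids also contain HUVEC endothelial cells and mesenchymal stem cells as stroma.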

## Cc1nc(N2CCC3(CC2)COC(C)C3N)c(CO)nc1Sc1ccnc(N)c1Cl (centres undefined) + C=CC(=O)N1CCN(c2nc(OCC3CCCN3C)nc3c(F)c(-c4nc(N)cc(C)c4C(F)(F)F)c(Cl)cc23)C(C)C1
Curve of first compound, second compound 0.00316 µM
  IC50: > 10000 nM
Curve of first compound, second compound 0.01 µM
  IC50: > 10000 nM
[1]
  IC50: > 10000 nM
[2]
  IC50: > 10000 nM
[3]
  IC50: > 10000 nM
[4]
  IC50: > 10000 nM
Second compound 0.00316 µM, first compound 0.0316 µM
  viability, T/C: 88.7%
Second compound 0.00316 µM, first compound 0.1 µM
  viability, T/C: 77.2%
Second compound 0.00316 µM, first compound 0.316 µM
  viability, T/C: 69.8%
Second compound 0.00316 µM, first compound 1 µM
  viability, T/C: 70.5%
Second compound 0.00316 µM, first compound 3.16 µM
  viability, T/C: 60.1%
Second compound 0.00316 µM, first compound 10 µM
  viability, T/C: 56.8%
Second compound 0.01 µM, first compound 0.0316 µM
  viability, T/C: 81.2%
Second compound 0.01 µM, first compound 0.1 µM
  viability, T/C: 79%
Second compound 0.01 µM, first compound 0.316 µM
  viability, T/C: 64.6%
Second compound 0.01 µM, first compound 1 µM
  viability, T/C: 64.2%
Second compound 0.01 µM, first compound 3.16 µM
  viability, T/C: 60.3%
Second compound 0.01 µM, first compound 10 µM
  viability, T/C: 63.3%
[5]
  viability, T/C: 73.8%
[6]
  viability, T/C: 90.9%
[7]
  viability, T/C: 72.1%
[8]
  viability, T/C: 71.6%
Second compound 0.0316 µM, first compound 3.16 µM
  viability, T/C: 60.7%
Second compound 0.0316 µM, first compound 10 µM
  viability, T/C: 56.9%
[9]
  viability, T/C: 101%
[10]
  viability, T/C: 78.5%
[11]
  viability, T/C: 70.5%
[12]
  viability, T/C: 63.2%
Second compound 0.1 µM, first compound 3.16 µM
  viability, T/C: 63%
Second compound 0.1 µM, first compound 10 µM
  viability, T/C: 54.1%
[13]
  viability, T/C: 100%
[14]
  viability, T/C: 80.3%
[15]
  viability, T/C: 61%
[16]
  viability, T/C: 61.3%
Second compound 0.316 µM, first compound 3.16 µM
  viability, T/C: 64.8%
Second compound 0.316 µM, first compound 10 µM
  viability, T/C: 56%
[17]
  viability, T/C: 106%
[18]
  viability, T/C: 70.1%
[19]
  viability, T/C: 66.5%
[20]
  viability, T/C: 62.6%
Second compound 1 µM, first compound 3.16 µM
  viability, T/C: 55.3%
Second compound 1 µM, first compound 10 µM
  viability, T/C: 48.3%

## C=CC(=O)Nc1cc(Nc2nccc(-c3cn(C)c4ccccc34)n2)c(OC)cc1N(C)CCN(C)C + C#Cc1c(F)ccc2cc(O)cc(-c3ncc4c(N5CC6CCC(C5)N6)nc(OCC56CCCN5CC(F)C6)nc4c3F)c12
[1]
  IC50: 39.2 nM
[2]
  IC50: 217 nM
[3]
  IC50: 47.1 nM
[4]
  IC50: < 3.16 nM
Curve of first compound, second compound 3.16 µM
  IC50: < 3.16 nM
Curve of first compound, second compound 10 µM
  IC50: < 3.16 nM
Second compound 0.0316 µM, first compound 0.00316 µM
  viability, T/C: 65.3%
Second compound 0.0316 µM, first compound 0.01 µM
  viability, T/C: 56%
[5]
  viability, T/C: 52.8%
[6]
  viability, T/C: 43.5%
[7]
  viability, T/C: 38.3%
[8]
  viability, T/C: 29.6%
Second compound 0.1 µM, first compound 0.00316 µM
  viability, T/C: 46%
Second compound 0.1 µM, first compound 0.01 µM
  viability, T/C: 59.9%
[9]
  viability, T/C: 49.7%
[10]
  viability, T/C: 59.8%
[11]
  viability, T/C: 46.7%
[12]
  viability, T/C: 22.9%
Second compound 0.316 µM, first compound 0.00316 µM
  viability, T/C: 51%
Second compound 0.316 µM, first compound 0.01 µM
  viability, T/C: 58.8%
[13]
  viability, T/C: 47.1%
[14]
  viability, T/C: 48.6%
[15]
  viability, T/C: 34.5%
[16]
  viability, T/C: 22.6%
Second compound 1 µM, first compound 0.00316 µM
  viability, T/C: 46.8%
Second compound 1 µM, first compound 0.01 µM
  viability, T/C: 48.3%
[17]
  viability, T/C: 51.1%
[18]
  viability, T/C: 43.4%
[19]
  viability, T/C: 34.4%
[20]
  viability, T/C: 17.8%
Second compound 3.16 µM, first compound 0.00316 µM
  viability, T/C: 43%
Second compound 3.16 µM, first compound 0.01 µM
  viability, T/C: 53.4%
Second compound 3.16 µM, first compound 0.0316 µM
  viability, T/C: 42.5%
Second compound 3.16 µM, first compound 0.1 µM
  viability, T/C: 49.9%
Second compound 3.16 µM, first compound 0.316 µM
  viability, T/C: 27.8%
Second compound 3.16 µM, first compound 1 µM
  viability, T/C: 15%
Second compound 10 µM, first compound 0.00316 µM
  viability, T/C: 32.5%
Second compound 10 µM, first compound 0.01 µM
  viability, T/C: 43.9%
Second compound 10 µM, first compound 0.0316 µM
  viability, T/C: 32.2%
Second compound 10 µM, first compound 0.1 µM
  viability, T/C: 34.2%
Second compound 10 µM, first compound 0.316 µM
  viability, T/C: 26.1%
Second compound 10 µM, first compound 1 µM
  viability, T/C: 3.73%

## CC(=O)OC12COC1CC(O)C1(C)C(=O)C(O)C3=C(C)C(OC(=O)C(O)C(NC(=O)OC(C)(C)C)c4ccccc4)CC(O)(C(OC(=O)c4ccccc4)C21)C3(C)C (centres undefined)
Compound 0.0316 µM
  viability, T/C: 38.4% [middle of 4 runs]
Compound 0.316 µM
  viability, T/C: 27.9% [middle of 4 runs]
Compound 1 µM
  viability, T/C: 35% [middle of 4 runs]
Compound 3.16 µM
  viability, T/C: 42.6% [middle of 4 runs]
Curve of compound
  IC50: < 31.6 nM
